Read-outs that look alike come from different tables or passages of the source.
Columns and labels:
[1] = tested on: human primary tumor cells; assay: Inhibition of primary tumor cell cultures vs absence or presence of AKT protein (Example 4; tumor type per table line); assay type: cell-based; conditions: Non Hodgkin Lymphoma B (diffuse B cell lymphoma); cases with presence of AKT; 100 micromolar
Protocol: (§1) Cell cultures. […] Briefly, small pieces of the tumors were digested into a hyaluronidase solution (Sigma-Aldrich, USA) at a concentration of 1 mg/ml during 15 minutes at 37°C, and then they were treated with 6 mg/ml of collagenase type IV (Invitrogen) during 2 hours at 37°C. Consecutively, cells were washed, and resuspended in the DMEM culture medium with high concentration of glucose (Dulbecco's Modified Eagle's Medium, Invitrogen) supplemented with 1% of antibiotics-antimycotics (Invitrogen) and with 1% of sodium pyruvate (Invitrogen), and the cells were seeded in culture slides at a concentration of 10.000 cells per square centimeter. When cells reached confluence, the adherent cells were separated using sterile trypsin at 0,5% (Invitrogen) and they were used among passages 3 and 9. For the assays shown next, tumor cells were seeded on slides at a concentration of 25.000 cells per well. A total of 6 wells containing the tumor cells were used as survival control. […] All the cultures were kept during 48 hours and later on recollected for their analysis.
Afterwards, the cells were cultured in presence of several antagonists of the NK1 receptor.
In each case it was determined the presence or absence of the AKT protein effector downstream in the PI3 Kinases pathway.
To determine the presence of the AKT protein in the different cultures Western Blot technique was performed (following the description in example 1-Western Blot section), but using as primary antibody with reference: Akt (pan) (11E7) Rabbit mAb (4685, Cell Signalling).
The antibody against NK1 receptor (Table 26) was used at 1/50 concentration. The percentages of inhibition are expressed in percentage of variation in relation to control ± standard deviation.

[2] = tested on: Gastric carcinoma; assay: Inhibition of primary tumor cell cultures (48 hours) vs NK1 receptor immunostaining (Example 1); assay type: cell-based; conditions: Homo sapiens, 1 micromolar, read-out: Percentage of inhibition of cell cultures
Protocol: (§2) Cell cultures. To obtain tumor cells from human primary tumors we used the method described in De Bari et al. (De Bari et al. 2001). Briefly, small pieces of the tumors were digested into a hyaluronidase solution (Sigma-Aldrich, USA) at a concentration of 1 mg/ml during 15 minutes at 37°C, and then they were treated with 6 mg/ml of collagenase type IV (Invitrogen) during 2 hours at 37°C. Consecutively, cells were washed, and resuspended in the DMEM culture medium with high concentration of glucose (Dulbecco's Modified Eagle's Medium, Invitrogen) supplemented with 1% of antibiotics-antimycotics (Invitrogen) and with 1% of sodium pyruvate (Invitrogen), and the cells were seeded in culture slides at a concentration of 10.000 cells per square centimeter. When cells reached confluence, the adherent cells were separated using sterile trypsin at 0,5% (Invitrogen) and they were used among passages 3 and 9. For the assays shown next, tumor cells were seeded on slides at a concentration of 25.000 cells per well. A total of 6 wells containing the tumor cells were used as survival control. […] All the cultures were kept during 48 hours and later on recollected for their analysis.
(§3) Immunohistochemistry techniques. The presence of NK1 receptors was also analyzed using immunohistochemistry techniques. Briefly, a sample of each of the cultures of the cell lines used in the present invention, was centrifuged (5 minutes at 1.500 rpm) and the pellet obtained was dehydrated using increasing concentrations of ethanol and, finally, xylol. Then, said dehydrated samples were embedded in paraffin, creating a block of cells. Such paraffin blocks were cut with a microtome at 5 microns thickness, and were placed on microscope slides adequate to perform immunohistochemistry techniques. Consecutively, they were de-paraffinized by immersing them in xylol, to be finally hydrated using a solution containing decreasing concentrations of ethanol, and finally submerged them into water. […] After this, the samples were left to cool down at room temperature for 10 minutes. The endogenous peroxidase activity was blocked with 3% peroxide of hydrogen for 30 minutes at room temperature. After washing the samples with 0.05 M of Tris buffer, they were incubated with 10% non-immune pork serum at for 30 minutes at room temperature. To analyze the expression of NK1 receptors, the cellular samples were incubated in the presence of anti-NK1 antibodies (S8305, Sigma-Aldrich) diluted 1:1000, overnight at 4°C. Afterwards, the samples were washed in Tris buffer 0.05 M at room temperature. The next step was the addition of Envision System-HRP (Dako) reagents for 30 minutes at room temperature. Then, the samples were washed again in Tris buffer 0.05 M and the immunoreactivity was visualized through light microscopy with a chromogenic solution containing 3,3'-Diaminobenzidine (DAB+; Dako, USA). To differentiate the cell nuclei, they were slightly stained with hematoxylin. As negative control, it was used samples not incubated with the primary antibody anti-NK1, which was replaced by non-immune serum. All the samples were evaluated.
(§4) To value the immunostaining in each of the cases six cuts were performed to be analyzed by the immunohistochemistry technique. In each of the six cuts, it was counted cells in 20 fields (magnification 400x) using an Olympus microscope (model CX31). In each field it was counted the total number of cells and the number of cells presenting immunostaining, calculating afterwards the percentage of cells which presented immunostaining.

[3] = tested on: Thyroid carcinoma (follicular carcinoma); assay: Inhibition of primary tumor cell cultures vs Kras mutation (Example 2); assay type: cell-based, human; conditions: Homo sapiens, Cases with Kras mutated; 100 micromolar; read-out: Percentage of inhibition of cell cultures
Protocol: (§5) To obtain tumor cells from human primary tumors we used the method described in De Bari et al. (De Bari et al. 2001). Briefly, small pieces of the tumors were digested into a hyaluronidase solution (Sigma-Aldrich, USA) at a concentration of 1 mg/ml during 15 minutes at 37°C, and then they were treated with 6 mg/ml of collagenase type IV (Invitrogen) during 2 hours at 37°C. Consecutively, cells were washed, and resuspended in the DMEM culture medium with high concentration of glucose (Dulbecco's Modified Eagle's Medium, Invitrogen) supplemented with 1% of antibiotics-antimycotics (Invitrogen) and with 1% of sodium pyruvate (Invitrogen), and the cells were seeded in culture slides at a concentration of 10.000 cells per square centimeter. When cells reached confluence, the adherent cells were separated using sterile trypsin at 0,5% (Invitrogen) and they were used among passages 3 and 9. For the assays shown next, tumor cells were seeded on slides at a concentration of 25.000 cells per well. A total of 6 wells containing the tumor cells were used as survival control. […] All the cultures were kept during 48 hours and later on recollected for their analysis.
(§6) In each case the presence or not of mutations in K-ras gene was determined.
(§7) To determine the existence of mutations in the K-ras gene DNA from cancer tumor cells was extracted from samples obtained from the different cancer tumor cells, using DNA extraction kits from Takara (Madison, WI, US) or Ambion (Huntingdon, Cambridgeshire, United Kingdom), following the manufacturer's instructions, and as it has been previously published (Di Fiore F, et al. 2007). Consecutively it was analyzed by sequencing the exon 2 of the KRAS gene, , by means of PCR amplification from previously extracted cancer tumor DNA, using the following sense primer (SEQ ID NO. 15): 5'-[sequence]-3' and anti-sense primer (SEQ ID NO. 16): 5'-[sequence]-3'. After the purification using the Qiagen extraction kit, the PCR products were sequenced using the Big Dye Terminator Kit V3.1 (Applied Biosystems, Foster City, CA, U.S.) and an ABI Prism 377 or 3100 DNA sequencer (Applied Biosystems). The presence of a heterozygous mutation in the KRAS gene in cancer tumor cells of the cultures was defined as the appearance of a mutant peak of a height of at least a third of the wild type. All the sequence analysis were executed at least twice in two independent PCR.
(§8) The antibody against NK1 receptor (Table 16) was used at 1/50 concentration. The percentages of inhibition are expressed in percentage of variation in relation to control ± standard deviation.

[4] = tested on: human primary tumor cells; assay: Inhibition of primary tumor cell cultures vs amplification of the gene encoding the NK1 receptor (Example 6; tumor type per table line); assay type: cell-based; conditions: Non Hodgkin Lymphoma T (diffuse T cell lymphoma); Cases with amplification of the gene that encodes for the NK1 receptor; 100 micromolar
Protocol: as §1
The presence or absence of the amplification of the gene encoding for the NK1 receptor was determined, and then the cells were cultured in the presence of several antagonists of the NK1 receptor.
For each case, the presence or absence of amplification of the gene encoding for the NK1 receptor was determined.
In order to determine the presence of the amplification (increase in the number of copies) of the gene encoding the NK1 receptor (TAC1R), it was used the comparative genomic hybridization technique (CGH Array). Firstly genomic DNA was extracted from each case. Later, it was performed the marking and hybridization of the DNA of each sample together with DNA of a commercial reference without genomic alterations (from masculine or feminine sex, depending on the gender of the patient from whom the samples were obtained). The Array is Sureprint G3 Human CGH Microarray from the company Agilent was used, with an average separation between probes of 5.3Kb and 4.6Kb for the genes RefSeq. The reading of the microarray was done with the DNA Microarray Scanner G2565CA from Agilent, at a resolution of 3 µm. The analysis of the results was performed with the software Cytogenomics v 2.0.6.0 from Agilent with ADM-2: 6.0; Centralization: ON (Threshold: 6.0, Bin size: 10); Fuzzy zero: ON; Aberration filters: ON (minProbes=5 and minAvgAbsLopRatio= 0,5); Feature Level Filters : ON. The genomic coordinates are coincident with the NCBI36genome (hg18). Cases were distributed in two groups: Group I for those cases without the amplification of the gene encoding the NK1 receptor (locus 2p13.1-p12), and Group II for those cases with amplification of the gene encoding the NK1receptor (locus 2p13.1-p12).
The antibody against NK1 receptor (Table 36) was used at 1/50 concentration. The percentages of inhibition are expressed in percentages of variation in relation to control ± standard deviation.

[5] = tested on: Breast carcinoma; assay: Inhibition of primary tumor cell cultures (48 hours) vs NK1 receptor immunostaining (Example 1); assay type: cell-based; conditions: Homo sapiens, 1 micromolar, read-out: Percentage of inhibition of cell cultures
Protocol: as §2, §3, §4

[6] = tested on: Breast carcinoma (ductal adenocarcinoma); assay: Inhibition of primary tumor cell cultures vs Kras mutation (Example 2); assay type: cell-based, human; conditions: Homo sapiens, Cases with Kras mutated; 100 micromolar; read-out: Percentage of inhibition of cell cultures
Protocol: as §1, §6, §7, §8

[7] = tested on: Colon carcinoma; assay: Inhibition of primary tumor cell cultures (48 hours) vs NK1 receptor immunostaining (Example 1); assay type: cell-based; conditions: Homo sapiens, 1 micromolar, read-out: Percentage of inhibition of cell cultures
Protocol: as §2, §3, §4

[8] = tested on: Thyroid carcinoma (papillary type); assay: as above; assay type: cell-based; conditions: Homo sapiens, 1 micromolar, read-out: Percentage of inhibition of cell cultures
Protocol: as §2, §3, §4

[9] = tested on: Burkitt Lymphoma; assay: Inhibition of primary tumor cell cultures vs Kras mutation (Example 2); assay type: cell-based, human; conditions: Homo sapiens, Cases with Kras mutated; 100 micromolar; read-out: Percentage of inhibition of cell cultures
Protocol: as §2, §6, §7, §8

[10] = tested on: Burkitt Lymphoma; assay: Inhibition of primary tumor cell cultures (48 hours) vs NK1 receptor immunostaining (Example 1); assay type: cell-based; conditions: Homo sapiens, 1 micromolar, read-out: Percentage of inhibition of cell cultures
Protocol: as §2, §3, §4

[11] = tested on: Non Hodgkin Lymphoma B; assay: as above; assay type: cell-based; conditions: Homo sapiens, 1 micromolar, read-out: Percentage of inhibition of cell cultures
Protocol: as §2, §3, §4

[12] = tested on: Undifferentiated Pleomorphic Sarcoma (malignant fibrous histiocytoma grade 3); assay: Inhibition of primary tumor cell cultures vs Kras mutation (Example 2); assay type: cell-based, human; conditions: Homo sapiens, Cases with Kras mutated; 100 micromolar; read-out: Percentage of inhibition of cell cultures
Protocol: as §2, §6, §7
(§9) The percentages of inhibition are expressed in percentage of variation in relation to control ± standard deviation.

[13] = tested on: Lung carcinoma (non small cell lung carcinoma); assay: as above; assay type: cell-based, human; conditions: Homo sapiens, Cases with Kras mutated; 100 micromolar; read-out: Percentage of inhibition of cell cultures
Protocol: as §5, §6, §7, §8

[14] = tested on: Prostate carcinoma; assay: as above; assay type: cell-based, human; conditions: Homo sapiens, Cases with Kras mutated; 100 micromolar; read-out: Percentage of inhibition of cell cultures
Protocol: as §2, §6, §7, §9

[15] = tested on: Endometrium carcinoma; assay: as above; assay type: cell-based, human; conditions: Homo sapiens, Cases with Kras mutated; 100 micromolar; read-out: Percentage of inhibition of cell cultures
Protocol: as §1, §6, §7, §8

[16] = tested on: Melanoma (Nodular Melanoma); assay: as above; assay type: cell-based, human; conditions: Homo sapiens, Cases with Kras mutated; 100 micromolar; read-out: Percentage of inhibition of cell cultures
Protocol: as §2, §6, §7, §9

[17] = tested on: Hodgkin lymphoma; assay: Inhibition of primary tumor cell cultures (48 hours) vs NK1 receptor immunostaining (Example 1); assay type: cell-based; conditions: Homo sapiens, 1 micromolar, read-out: Percentage of inhibition of cell cultures
Protocol: as §2, §3, §4

[18] = tested on: Ovarian carcinoma (Adenocarcinoma); assay: Inhibition of primary tumor cell cultures vs Kras mutation (Example 2); assay type: cell-based, human; conditions: Homo sapiens, Cases with Kras mutated; 100 micromolar; read-out: Percentage of inhibition of cell cultures
Protocol: as §1, §6, §7, §8

[19] = tested on: human primary tumor cells; assay: Inhibition of primary tumor cell cultures vs absence or presence of ERK  protein (Example 3; tumor type per table line); assay type: cell-based; conditions: Non Hodgkin Lymphoma T (diffuse T cell lymphoma), 100 micromolar
[20] = NK1 receptor immunostaining Group 1 (less than 20% of the cells)
[21] = NK1 receptor immunostaining Group 2 (20-80% of the cells)
[22] = NK1 receptor immunostaining Group 3 (more than 80% of the cells)
[23] = NK1 receptor immunostaining Intensity grade 1
[24] = NK1 receptor immunostaining Intensity grade 2
[25] = NK1 receptor immunostaining Intensity grade 3

C[C@@H](O[C@H]1OCCN(Cc2n[nH]c(=O)[nH]2)[C@H]1c1ccc(F)cc1)c1cc(C(F)(F)F)cc(C(F)(F)F)c1 [Aprepitant]
Percentage of inhibition of cell cultures [1]: 95±3 percentage
inhibition at 1 µM [2, 20]: 10 ± 3%
inhibition at 1 µM [2, 21]: 45 ± 3%
inhibition at 1 µM [2, 22]: 92 ± 3%
inhibition at 1 µM [2, 23]: 25 ± 6%
inhibition at 1 µM [2, 24]: 57 ± 5%
inhibition at 1 µM [2, 25]: 96 ± 4%
inhibition at 100 µM [3]: 26 ± 3%
Percentage of inhibition of cell cultures [4]: 94±7 percentage
inhibition at 1 µM [5, 20]: 11 ± 1%
inhibition at 1 µM [5, 21]: 46 ± 3%
inhibition at 1 µM [5, 22]: 94 ± 5%
inhibition at 1 µM [5, 23]: 28 ± 6%
inhibition at 1 µM [5, 24]: 58 ± 5%
inhibition at 1 µM [5, 25]: 95 ± 7%
inhibition at 100 µM [6]: 22 ± 2%
inhibition at 1 µM [7, 20]: 11 ± 4%
inhibition at 1 µM [7, 21]: 44 ± 2%
inhibition at 1 µM [7, 22]: 95 ± 4%
inhibition at 1 µM [7, 23]: 26 ± 6%
inhibition at 1 µM [7, 24]: 56 ± 6%
inhibition at 1 µM [7, 25]: 95 ± 5%
inhibition at 1 µM [8, 20]: 10 ± 3%
inhibition at 1 µM [8, 21]: 47 ± 3%
inhibition at 1 µM [8, 22]: 97 ± 6%
inhibition at 1 µM [8, 23]: 27 ± 6%
inhibition at 1 µM [8, 24]: 56 ± 4%
inhibition at 100 µM [9]: 24 ± 3%
inhibition at 1 µM [10, 20]: 10 ± 2%
inhibition at 1 µM [10, 21]: 45 ± 6%
inhibition at 1 µM [10, 22]: 96 ± 4%
inhibition at 1 µM [10, 23]: 27 ± 5%
inhibition at 1 µM [10, 24]: 55 ± 3%
inhibition at 1 µM [10, 25]: 92 ± 5%
inhibition at 1 µM [11, 20]: 10 ± 2%
inhibition at 1 µM [11, 21]: 47 ± 4%
inhibition at 1 µM [11, 22]: 96 ± 5%
inhibition at 1 µM [11, 23]: 27 ± 5%
inhibition at 1 µM [11, 24]: 55 ± 5%
inhibition at 1 µM [11, 25]: 97 ± 6%
inhibition at 100 µM [12]: 24 ± 3%
inhibition at 100 µM [13]: 21 ± 2%
inhibition at 100 µM [14]: 24 ± 3%
inhibition at 100 µM [15]: 25 ± 4%
inhibition at 100 µM [16]: 26 ± 4%
inhibition at 1 µM [17, 20]: 10 ± 3%
inhibition at 1 µM [17, 21]: 49 ± 3%
inhibition at 1 µM [17, 22]: 94 ± 5%
inhibition at 1 µM [17, 23]: 26 ± 5%
inhibition at 1 µM [17, 24]: 55 ± 3%
inhibition at 1 µM [17, 25]: 92 ± 6%
inhibition at 100 µM [18]: 24 ± 5%
Percentage of inhibition of cell cultures ([19]; cases with presence of ERK): 94±4 percentage
Percentage of inhibition of cell cultures ([19]; cases without presence of ERK): 23±3 percentage

Source: EP2966448B1, “METHOD FOR THE PREDICTION OR PROGNOSIS OF THE RESPONSE OF A HUMAN SUBJECT SUFFERING FROM CANCER TO TREATMENT WITH AN ANTAGONIST OF THE NK1 RECEPTOR” (priority 2013, dated 2014)
